Data: US20110112184A1, “COMPOUNDS WITH GLYCIDIC STRUCTURE ACTIVE IN THE THERAPY OF SYSTEMIC AND LOCAL INFLAMMATION” (priority 2008, published 2011)

Assays:
[1] = tested on: SGLT-1-mediated intestinal glucose absorption; experiment: Glycemia in mice after oral glucose challenge; type: in vivo; settings: plasma, mice challenged orally with 2.5 g/kg glucose + 250 μg/kg compound 4, 1 h
Protocol: As such, it was argued that it might act as a functional antagonist of SGLT-1-mediated intestinal glucose absorption, and used for the control of hyperglycemia in type II diabetes. This possibility was tested in the following experiments.
In a first set of experiments mice were orally challenged with 2.5 g/kg of glucose with or without concomitant administration of compound 4 (250 μg/kg) and glycemia was measured after 1 h.

DSS-treated mice = experiment: Chronic Crohn-like disease induced by 4 cycles of DSS 2% in mice; type: in vivo; settings: chronic model
Source text: FIG. 6. Colon length in untreated mice or mice treated with DSS+comp 4. Untr=Untreated; DSS=Mice treated with DSS alone; DSS comp 4=Mice treated with DSS and comp 4;=Mice treated comp 4 alone.
FIG. 7. TNF-α content in the protein extract of the colon of untreated mice or mice treated with DSS+comp 4. Untr=Protein extract from colon of untreated mice; DSS=Protein extract from colon of mice treated with DSS alone; DSS comp 4=Protein extract from colon of mice treated with DSS+comp 4;=Protein extract from colon of mice treated with comp 4 alone.
Chronic Crohn-like disease was induced in mice by administration of DSS 2% for 4 cycles, with each cycle consisting in exposition to DSS 2% for 7 days, followed by 14 days of regular water. In mice that were administered also compound 4, last exposition of DSS was followed by p.o. administration of compound 4 at 25 μg/kg, 4 times/week for 3 weeks.
One hallmark of the chronic Crohn's disease model is the shortening of the colon.
Another parameter that was measured in this setting was the TNF-α content in the protein extract of the colon of mice. DSS 2% alone led to a dramatic increase of the TNF-α levels in the protein extract, while co-treatment with compound 4 led to normalization of these levels.

[2] = tested on: mice treated with doxorubicin; experiment: Acute doxorubicin-induced enterocyte injury in mice; type: in vivo; settings: doxorubicin 27 mg/kg i.p. + compound 4 25 μg/kg orally; 72 h
Protocol: (§1) FIG. 11. Serum levels of KC in untreated mice or mice submitted to acute treatment with doxorubicin or chronic treatment with doxorubicin and 5-fluorouracil. Untr=Untreated; Doxo 27 mg=Mice submitted to acute treatment with doxorubicin; Doxo 27 mg comp 4=Mice submitted to acute treatment with doxorubicin and concomitant p.o. administration of comp 4; Doxo cron=Mice submitted to chronic treatment with doxorubicin and 5-fluoruracil; Doxo cron comp 4=Mice submitted to chronic treatment with doxorubicin and 5-fluoruracil and concomitant p.o. administration of compound 4.
FIG. 12. Histology of the epithelium of the small intestine in mice after acute treatment with doxorubicin (DOXO) or acute treatment with doxorubicin and concomitant administration of compound 4 (comp 4+DOXO).
For the first model, doxorubicin was administered to mice by intraperitoneal injection (27 mg/kg). Some of the mice were administered at the same time compound 4 (25 μg/kg orally). Recovery of the blood for the determination of circulating KC levels and subsequent sacrifice of the animals were performed at 72 h after treatment.

[3] = tested on: LPS/GalN-induced shock in FVB mice; experiment: LPS/galactosamine-induced shock in mice; type: in vivo; settings: LPS 5 μg/mouse + GalN 40 mg/mouse i.p., compound 4 25 μg/kg (0.5 μg/mouse) p.o.
Protocol: FIG. 4. Protection afforded by comp 4 in LPS-induced shock in mice. Untr=untreated; LPSGalN=Mice treated with LPS/GalN alone; LPSGalN Comp 4=Mice treated with LPS/GalN+Comp 4=Mice treated with Comp 4 alone.
Compound 4 was tested in LPS/galactosamine (GalN)-induced shock in mice. LPS shock was induced in 2-months old FVB mice through intraperitoneal (i.p). injection of 5 μg LPS/mouse (LPS from Salmonella enterica abortus equi) and 40 mg/mouse GalN (LPS/GalN).

[4] = tested on: mice treated with doxorubicin and 5-fluoruracil; experiment: Chronic doxorubicin- and 5-fluoruracil-induced enterocyte injury in mice; type: in vivo
Protocol: as §1
FIG. 13. Histology of the epithelium of the small intestine in mice after chronic treatment with doxorubicin and 5-fluoruracil (DOXO+FLUO) or chronic treatment with doxorubicin and 5-fluoruracil and concomitant administration of compound 4 (comp 4+DOXO+FLUO).
For the chronic model of enterocyte injury, doxorubicin was administered 1×/week for three weeks (7 mg/kg for the first two administrations, […] for the last administration). At the same times, mice were administered also 5-fluoruracil at 100 mg/kg. Administrations of the chemotherapeutics were performed intraperitoneally. Some of the mice were treated at the same times with compound 4 (25 μg/kg, orally). Recovery of the blood for the determination of circulating KC levels and subsequent sacrifice of the animals were performed at 72 h after the last treatment. […]

A549 human pneumocytes = experiment: LPS-induced IL-8 production by A549 human pneumocytes; type: cell-based; settings: LPS from Pseudomonas aeruginosa 100 μg/ml, compound 4 5 μg/L
Protocol: FIG. 2B. LPS (100 μg/ml)-induced IL-8 production by A549 human pneumocytes in the absence or presence of compound (Comp) 4 (5 μg/L).
The effect of the compounds on the release of IL-8 or KC was tested upon stimulation of intestinal epithelial cells (IEC) with LPS from Salmonella enterica abortus equi. The human IEC line HT29 was used for these experiments. Cells were cultured for 18 h in medium alone or in medium additioned with different concentrations of compounds 4, 5, 6, 7, 4′ and 14 (from 50 mg/L to 5 μg/L). Then, cells were stimulated for 6 h with LPS (1 μg/ml). […] Similar experiments were performed on a human pneumocyte type II cell line (A549) using compound 4 and LPS from Pseudomonas aeruginosa.

SMILES: CN(C)c1cccc2c(S(=O)(=O)NCC[C@H]3O[C@H](CO)[C@@H](O)[C@H](O)[C@H]3O)cccc12 [Compound 4, 5-(Dimethylamino)-N-[2′-(α-D-glucopyranosyl)ethyl]-1-naphthalenesulphonamide]
- Glycemia levels [1]: 150 mg/dL
- Intestinal transmembrane resistance (DSS-treated mice; 4 cycles DSS 2% + compound 4 25 μg/kg p.o. 4 times/week for 3 weeks): 47 Ω × cm^2
- TNF-α content in the protein extract of the colon (DSS-treated mice; DSS 2% + compound 4): normalization
- mean length of the colon (DSS-treated mice; DSS 2% + compound 4): 11.55 cm
- Histology of the epithelium of the small intestine [2]: normal morphology
- circulating KC levels [2]: strongly reduced
- Protection against LPS/GalN-induced shock [3]: full protection
- Histology of the small intestine ([4]; chronic doxorubicin + 5-fluoruracil + compound 4 25 μg/kg orally): completely normal morphology
- circulating KC levels ([4]; doxorubicin 1×/week for three weeks + 5-fluoruracil 100 mg/kg i.p. + compound 4 25 μg/kg orally, 72 h after last treatment): brought the levels back to those observed in untreated mice
- LPS-induced IL-8 production (A549 human pneumocytes): significantly inhibited
